According to patent EP4722207A1, “OXOISOINDOLINYL-SUBSTITUTED TETRAHYDROPYRIMIDINEDIONE DERIVATIVE AND USE THEREOF” (Gluetacs Therapeutics (Shanghai) Co., Ltd., priority 2023, dated 2024):

Columns and labels:
IKZF2 = target: T1, IKZF2 (Homo sapiens, UniProt Q96SW2+Q9UKS7); assay: Western-blot assay, substrate protein degradation in hPBMCs: IKZF2; type: cell-based; details: 24 hours of compound treatment, 50 nM and 500 nM
T1 construct: effects of the compounds of the present disclosure on the expression of target proteins in cells; endogenous in cells; host or cells: human PBMCs (hPBMCs)

WEE1 = target: T2, WEE1 (Homo sapiens, UniProt P30291+Q96SW2); assay: Western-blot assay, substrate protein degradation in hPBMCs: WEE1; type: cell-based; details: 24 hours of compound treatment, 50 nM and 500 nM
T2 construct: effects of the compounds of the present disclosure on the expression of target proteins in cells; endogenous in cells; host or cells: human PBMCs (hPBMCs)

IKZF1 = target: T3, IKZF1 (Homo sapiens, UniProt Q13422+Q96SW2); assay: Western-blot assay, substrate protein degradation in hPBMCs: IKZF1; type: cell-based; details: 24 hours of compound treatment, 50 nM and 500 nM
T3 construct: effects of the compounds of the present disclosure on the expression of target proteins in cells; endogenous in cells; host or cells: human PBMCs (hPBMCs)

GSPT1 = target: T4, GSPT1 (Homo sapiens, UniProt P15170+Q96SW2); assay: Western-blot assay, substrate protein degradation in hPBMCs: GSPT1; type: cell-based; details: 24 hours of compound treatment, 50 nM and 500 nM
T4 construct: effects of the compounds of the present disclosure on the expression of target proteins in cells; endogenous in cells; host or cells: human PBMCs (hPBMCs)

MDA-MB-231 = assay: Cell viability assay (CellTiter-Meiluncell Luminescent), tumor cell proliferation, MDA-MB-231; details: Homo sapiens, MDA-MB-231, 96 h; for inhibition at 0.01 µM: read-out: Inhibition Rate at 10 nM (%); for inhibition at 0.5 µM: read-out: Inhibition Rate at 500 nM (%)
Method: (§1) The tumor cells used herein were cultured in a cell culture medium listed in table 2 at 37°C in an incubator with 5% CO2. Prior to experimentation, all cell lines used were correctly identified by STR profiling, and tested negative for mycoplasma contamination using a mycoplasma detection kit through routine screenings.
(§2) On the following day, the test compounds of the present disclosure were subjected to serial dilution. […] Subsequently, 0.5 µL of the test compound dilution was transferred into the 96-well plate containing the cells, with each well containing 100 µL of cell culture medium. […] Into the 96-well plate, the diluted test compounds and corresponding detection reagents were added, resulting in final test compound concentrations of 500 nM and 10 nM, respectively. The experimental procedure is described below using the diluted 2 µM test compound as an example.
(§3) After the cells were treated with the compounds of the present disclosure for a specified period, the cell viability assay reagent was added to the culture medium according to the kit's instructions to determine cell viability. […] All controls were treated using the same procedure as the compounds of the present disclosure. The growth inhibition curves for the compounds of the present disclosure were plotted using Prism GraphPad software, and the IC50 values were calculated therefrom.

IKZF3 = target: T5, IKZF3 (Homo sapiens, UniProt Q96SW2+Q9UKT9); assay: Western-blot assay, substrate protein degradation in hPBMCs: IKZF3; type: cell-based; details: 24 hours of compound treatment, 50 nM and 500 nM
T5 construct: effects of the compounds of the present disclosure on the expression of target proteins in cells; endogenous in cells; host or cells: human PBMCs (hPBMCs)

CK1α = target: T6, CK1α (Homo sapiens, UniProt P48729+Q96SW2); assay: Western-blot assay, substrate protein degradation in hPBMCs: CK1α; type: cell-based; details: 24 hours of compound treatment, 50 nM and 500 nM
T6 construct: effects of the compounds of the present disclosure on the expression of target proteins in cells; endogenous in cells; host or cells: human PBMCs (hPBMCs)

H292 = assay: Cell viability assay (CellTiter-Meiluncell Luminescent), tumor cell proliferation, H292; details: Homo sapiens, NCI-H292, 96 h; for inhibition at 0.01 µM: read-out: Inhibition Rate at 10 nM (%); for inhibition at 0.5 µM: read-out: Inhibition Rate at 500 nM (%)
H2228 = assay: Cell viability assay (CellTiter-Meiluncell Luminescent), tumor cell proliferation, H2228; details: Homo sapiens, NCI-H2228, 96 h; for inhibition at 0.01 µM: read-out: Inhibition Rate at 10 nM (%); for inhibition at 0.5 µM: read-out: Inhibition Rate at 500 nM (%)
Method: as §1, §2, §3

T6 sequence (P48729 whole entry): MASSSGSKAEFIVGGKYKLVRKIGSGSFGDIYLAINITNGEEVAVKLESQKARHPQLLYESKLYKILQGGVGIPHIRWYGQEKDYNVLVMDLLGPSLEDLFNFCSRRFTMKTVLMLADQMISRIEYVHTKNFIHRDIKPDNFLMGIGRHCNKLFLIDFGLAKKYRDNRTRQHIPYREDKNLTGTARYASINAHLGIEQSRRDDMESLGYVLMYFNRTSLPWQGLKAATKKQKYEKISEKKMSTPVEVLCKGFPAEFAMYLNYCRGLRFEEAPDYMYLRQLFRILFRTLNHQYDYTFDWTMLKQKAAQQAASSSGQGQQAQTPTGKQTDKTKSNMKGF
T6 sequence (Q96SW2 whole entry): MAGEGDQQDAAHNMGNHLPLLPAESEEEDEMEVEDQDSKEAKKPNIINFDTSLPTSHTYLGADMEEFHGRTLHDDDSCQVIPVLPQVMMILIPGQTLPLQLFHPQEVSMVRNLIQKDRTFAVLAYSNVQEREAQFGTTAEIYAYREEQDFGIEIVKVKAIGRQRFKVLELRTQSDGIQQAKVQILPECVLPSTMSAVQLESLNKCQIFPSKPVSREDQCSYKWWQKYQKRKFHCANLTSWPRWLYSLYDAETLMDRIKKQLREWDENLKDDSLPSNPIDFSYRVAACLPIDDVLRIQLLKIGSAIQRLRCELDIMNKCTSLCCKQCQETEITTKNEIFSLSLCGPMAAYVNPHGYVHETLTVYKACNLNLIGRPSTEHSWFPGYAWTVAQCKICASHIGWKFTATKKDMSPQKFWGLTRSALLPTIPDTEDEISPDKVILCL
T6 sequence (Q16531 whole entry partner): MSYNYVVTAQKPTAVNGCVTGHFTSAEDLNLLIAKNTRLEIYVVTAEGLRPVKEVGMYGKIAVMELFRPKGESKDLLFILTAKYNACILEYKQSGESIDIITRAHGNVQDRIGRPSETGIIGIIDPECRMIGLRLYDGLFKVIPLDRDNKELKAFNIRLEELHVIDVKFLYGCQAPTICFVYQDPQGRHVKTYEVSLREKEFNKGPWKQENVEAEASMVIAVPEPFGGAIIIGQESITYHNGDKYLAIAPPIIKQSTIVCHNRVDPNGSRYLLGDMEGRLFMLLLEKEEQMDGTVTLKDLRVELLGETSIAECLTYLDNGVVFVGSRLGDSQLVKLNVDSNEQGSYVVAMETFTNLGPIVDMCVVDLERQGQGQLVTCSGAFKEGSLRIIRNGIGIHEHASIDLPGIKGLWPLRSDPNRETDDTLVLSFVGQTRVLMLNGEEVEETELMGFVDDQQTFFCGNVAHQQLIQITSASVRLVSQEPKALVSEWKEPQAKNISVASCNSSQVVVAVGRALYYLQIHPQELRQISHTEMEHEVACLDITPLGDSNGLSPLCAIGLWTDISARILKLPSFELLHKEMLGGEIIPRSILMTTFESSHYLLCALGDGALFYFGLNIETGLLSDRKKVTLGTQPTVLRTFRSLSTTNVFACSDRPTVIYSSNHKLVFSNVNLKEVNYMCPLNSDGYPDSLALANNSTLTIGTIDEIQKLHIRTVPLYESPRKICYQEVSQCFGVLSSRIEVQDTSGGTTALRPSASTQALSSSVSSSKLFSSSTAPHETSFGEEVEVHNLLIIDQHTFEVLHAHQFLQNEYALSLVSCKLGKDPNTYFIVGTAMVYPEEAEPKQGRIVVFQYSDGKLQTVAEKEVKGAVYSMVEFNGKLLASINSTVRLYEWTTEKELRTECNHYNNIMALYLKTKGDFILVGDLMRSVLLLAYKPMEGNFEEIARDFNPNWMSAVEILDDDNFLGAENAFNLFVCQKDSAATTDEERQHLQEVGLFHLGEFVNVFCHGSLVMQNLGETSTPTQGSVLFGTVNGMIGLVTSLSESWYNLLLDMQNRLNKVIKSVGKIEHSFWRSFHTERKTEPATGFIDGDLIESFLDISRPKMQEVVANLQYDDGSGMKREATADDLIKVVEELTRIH
T4 sequence (P15170 whole entry): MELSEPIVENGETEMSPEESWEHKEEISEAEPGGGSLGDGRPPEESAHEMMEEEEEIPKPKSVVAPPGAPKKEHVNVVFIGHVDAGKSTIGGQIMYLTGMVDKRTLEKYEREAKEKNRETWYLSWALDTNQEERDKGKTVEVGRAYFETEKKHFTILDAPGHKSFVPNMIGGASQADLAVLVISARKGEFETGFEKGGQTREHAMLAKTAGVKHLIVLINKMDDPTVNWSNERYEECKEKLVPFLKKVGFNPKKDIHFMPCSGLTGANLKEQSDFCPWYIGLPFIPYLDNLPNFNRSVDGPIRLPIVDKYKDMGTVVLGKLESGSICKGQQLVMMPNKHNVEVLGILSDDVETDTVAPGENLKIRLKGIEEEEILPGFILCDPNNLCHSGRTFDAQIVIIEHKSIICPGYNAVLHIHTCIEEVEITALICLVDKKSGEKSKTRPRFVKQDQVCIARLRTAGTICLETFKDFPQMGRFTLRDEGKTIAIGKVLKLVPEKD
T4 sequence (Q96SW2 whole entry): as the sequence (Q96SW2 whole entry) above
T4 sequence (Q16531 whole entry partner): as the sequence (Q16531 whole entry partner) above
T3 sequence (Q13422 whole entry): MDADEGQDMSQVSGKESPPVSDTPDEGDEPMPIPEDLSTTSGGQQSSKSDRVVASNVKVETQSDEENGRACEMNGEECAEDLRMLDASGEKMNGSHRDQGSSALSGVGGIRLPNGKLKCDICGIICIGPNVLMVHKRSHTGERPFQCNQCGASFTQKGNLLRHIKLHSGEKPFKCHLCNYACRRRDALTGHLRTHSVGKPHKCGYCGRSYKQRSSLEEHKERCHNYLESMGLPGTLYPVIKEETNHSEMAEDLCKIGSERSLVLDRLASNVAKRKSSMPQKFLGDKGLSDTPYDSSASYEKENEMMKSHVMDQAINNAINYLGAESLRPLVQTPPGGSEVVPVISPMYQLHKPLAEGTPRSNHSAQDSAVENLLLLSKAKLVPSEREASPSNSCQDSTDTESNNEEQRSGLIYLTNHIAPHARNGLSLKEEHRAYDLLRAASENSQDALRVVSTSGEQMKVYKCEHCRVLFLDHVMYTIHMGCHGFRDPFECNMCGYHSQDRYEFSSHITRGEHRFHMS
T3 sequence (Q96SW2 whole entry): as the sequence (Q96SW2 whole entry) above
T3 sequence (Q16531 whole entry partner): as the sequence (Q16531 whole entry partner) above
T5 sequence (Q9UKT9 whole entry): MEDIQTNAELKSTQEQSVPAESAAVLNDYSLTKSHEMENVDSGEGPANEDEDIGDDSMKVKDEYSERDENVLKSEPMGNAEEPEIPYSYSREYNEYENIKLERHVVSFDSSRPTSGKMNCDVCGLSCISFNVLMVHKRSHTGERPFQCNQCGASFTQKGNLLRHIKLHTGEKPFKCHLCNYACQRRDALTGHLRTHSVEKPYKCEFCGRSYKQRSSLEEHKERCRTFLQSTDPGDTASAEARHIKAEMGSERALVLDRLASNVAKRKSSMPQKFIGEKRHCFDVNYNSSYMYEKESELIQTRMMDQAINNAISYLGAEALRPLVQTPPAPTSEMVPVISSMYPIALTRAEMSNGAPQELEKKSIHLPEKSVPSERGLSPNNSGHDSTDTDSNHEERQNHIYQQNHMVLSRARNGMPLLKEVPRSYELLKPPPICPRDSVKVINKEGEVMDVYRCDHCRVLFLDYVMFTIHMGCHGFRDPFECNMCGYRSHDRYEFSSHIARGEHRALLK
T5 sequence (Q96SW2 whole entry): as the sequence (Q96SW2 whole entry) above
T5 sequence (Q16531 whole entry partner): as the sequence (Q16531 whole entry partner) above
T1 sequence (Q9UKS7 whole entry): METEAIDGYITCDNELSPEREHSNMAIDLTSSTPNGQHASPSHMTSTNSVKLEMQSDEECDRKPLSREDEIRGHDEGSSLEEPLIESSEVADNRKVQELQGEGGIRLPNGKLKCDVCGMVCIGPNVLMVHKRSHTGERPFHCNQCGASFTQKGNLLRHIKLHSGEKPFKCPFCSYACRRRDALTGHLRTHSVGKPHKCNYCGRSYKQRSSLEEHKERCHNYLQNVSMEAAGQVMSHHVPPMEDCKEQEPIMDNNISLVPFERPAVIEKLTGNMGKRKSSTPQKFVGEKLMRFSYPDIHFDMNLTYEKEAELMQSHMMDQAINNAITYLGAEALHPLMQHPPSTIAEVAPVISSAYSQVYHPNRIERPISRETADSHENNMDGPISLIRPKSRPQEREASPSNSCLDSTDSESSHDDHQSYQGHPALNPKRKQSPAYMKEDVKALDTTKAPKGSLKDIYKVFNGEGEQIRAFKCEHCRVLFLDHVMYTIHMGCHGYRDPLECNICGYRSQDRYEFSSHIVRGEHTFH
T1 sequence (Q96SW2 whole entry): as the sequence (Q96SW2 whole entry) above
T1 sequence (Q16531 whole entry partner): as the sequence (Q16531 whole entry partner) above

SMILES | substrate protein remaining % IKZF2 (IKZF2) | substrate protein remaining % WEE1 (WEE1) | substrate protein remaining % IKZF1 (IKZF1) | substrate protein remaining % GSPT1 (GSPT1) | inhibition at 0.01 µM (MDA-MB-231) [%] | inhibition at 0.5 µM (MDA-MB-231) [%] | substrate protein remaining % IKZF3 (IKZF3) | substrate protein remaining % CK1α (CK1α) | inhibition at 0.01 µM (H292) [%] | inhibition at 0.5 µM (H292) [%] | inhibition at 0.01 µM (H2228) [%] | inhibition at 0.5 µM (H2228) [%]
O=C1CCN(N2C(=O)c3ccc(CNC45CC6CC(CC(O)(C6)C4)C5)cc3C2=O)C(=O)N1 [GT-07786, 2-(2,4-dioxotetrahydropyrimidin-1(2H)-yl)-5-((((1r,3s,5R,7S)-3-hydroxyadamantan-1-yl)amino)methyl)isoindoline-1,3-dione] | B (80%< substrate protein remaining %≤ 100%) | B (80%< substrate protein remaining %≤ 100%) | B (80%< substrate protein remaining %≤ 100%) | A (0% ≤ substrate protein remaining % ≤ 80%) | 15 to 18 | 25 to 40 | B (80%< substrate protein remaining %≤ 100%) | B (80%< substrate protein remaining %≤ 100%) | 10 to 15 | 20 to 40 | 10 to 15 | 25 to 30
O=C1CCN(N2Cc3cc(CN4CCN(c5ncnc6sccc56)CC4)ccc3C2=O)C(=O)N1 [GT-08057, 1-(1-oxo-5-((4-(thieno[2,3-d]pyrimidin-4-yl)piperazin-1-yl)methyl)isoindolin-2-yl)dihydropyrimidine-2,4(1H,3H)-dione] | B (80%< substrate protein remaining %≤ 100%) | B (80%< substrate protein remaining %≤ 100%) | A (0% ≤ substrate protein remaining % ≤ 80%) | A (0% ≤ substrate protein remaining % ≤ 80%) | 25 to 40 | 25 to 40 | B (80%< substrate protein remaining %≤ 100%) | B (80%< substrate protein remaining %≤ 100%) | 15 to 20 | 15 to 20 | 30 to 40 | 20 to 25
Cc1cc2c(N3CCN(Cc4ccc5c(c4)CN(N4CCC(=O)NC4=O)C5=O)CC3)ncnc2s1 [GT-08059, 1-(5-((4-(6-methylthieno[2,3-d]pyrimidin-4-yl)piperazin-1-yl)methyl)-1-oxoisoindolin-2-yl)dihydropyrimidine-2,4(1H,3H)-dione] | B (80%< substrate protein remaining %≤ 100%) | B (80%< substrate protein remaining %≤ 100%) | B (80%< substrate protein remaining %≤ 100%) | B (80%< substrate protein remaining %≤ 100%) | 25 to 40 | 25 to 40 | A (0% ≤ substrate protein remaining % ≤ 80%) | B (80%< substrate protein remaining %≤ 100%) | 20 to 40 | 5 to 10 | 30 to 40 | 15 to 20
CC(C)c1cc2c(N3CCN(Cc4ccc5c(c4)CN(N4CCC(=O)NC4=O)C5=O)CC3)ncnc2s1 [GT-08060, 1-(5-((4-(6-isopropylthieno[2,3-d]pyrimidin-4-yl)piperazin-1-yl)methyl)-1-oxoisoindolin-2-yl)dihydropyrimidine-2,4(1H,3H)-dione] | A (0% ≤ substrate protein remaining % ≤ 80%) | B (80%< substrate protein remaining %≤ 100%) | B (80%< substrate protein remaining %≤ 100%) | B (80%< substrate protein remaining %≤ 100%) | 25 to 40 | 25 to 40 | A (0% ≤ substrate protein remaining % ≤ 80%) | B (80%< substrate protein remaining %≤ 100%) | 20 to 40 | 20 to 40 | 20 to 25 | 30 to 40
Cc1cc2c(C3CCN(Cc4ccc5c(c4)CN(N4CCC(=O)NC4=O)C5=O)CC3)ncnc2s1 [GT-08083, 1-(5-((4-(6-methylthieno[2,3-d]pyrimidin-4-yl)piperidin-1-yl)methyl)-1-oxoisoindolin-2-yl)dihydropyrimidine-2,4(1H,3H)-dione] | B (80%< substrate protein remaining %≤ 100%) | B (80%< substrate protein remaining %≤ 100%) | B (80%< substrate protein remaining %≤ 100%) | A (0% ≤ substrate protein remaining % ≤ 80%) | 25 to 40 | 25 to 40 | B (80%< substrate protein remaining %≤ 100%) | A (0% ≤ substrate protein remaining % ≤ 80%) | 20 to 40 | 20 to 40 | 25 to 30 | 30 to 40
Cc1nc(C2CCN(Cc3ccc4c(c3)CN(N3CCC(=O)NC3=O)C4=O)CC2)c2c3c(sc2n1)CCCC3 [GT-08089, 1-(5-((4-(2-methyl-5,6,7,8-tetrahydrobenzo[4,5]thieno[2,3-d]pyrimidin-4-yl)piperidin-1-yl)methyl)-1-oxoisoindolin-2-yl)dihydropyrimidine-2,4(1H,3H)-dione] | B (80%< substrate protein remaining %≤ 100%) | A (0% ≤ substrate protein remaining % ≤ 80%) | B (80%< substrate protein remaining %≤ 100%) | A (0% ≤ substrate protein remaining % ≤ 80%) | 18 to 25 | 25 to 40 | B (80%< substrate protein remaining %≤ 100%) | A (0% ≤ substrate protein remaining % ≤ 80%) | 20 to 40 | 20 to 40 | 20 to 25 | 20 to 25
Cc1csc2ncnc(N3CCN(Cc4ccc5c(c4)C(=O)N(N4CCC(=O)NC4=O)C5=O)CC3)c12 [GT-08091, 2-(2,4-dioxotetrahydropyrimidin-1(2H)-yl)-5-((4-(5-methylthieno[2,3-d]pyrimidin-4-yl)piperazin-1-yl)methyl)isoindoline-1,3-dione] | B (80%< substrate protein remaining %≤ 100%) | A (0% ≤ substrate protein remaining % ≤ 80%) | B (80%< substrate protein remaining %≤ 100%) | A (0% ≤ substrate protein remaining % ≤ 80%) | 15 to 18 | 18 to 25 | B (80%< substrate protein remaining %≤ 100%) | A (0% ≤ substrate protein remaining % ≤ 80%) | 20 to 40 | 20 to 40 | 20 to 25 | 20 to 25
Cc1sc2ncnc(N3CCN(Cc4ccc5c(c4)C(=O)N(N4CCC(=O)NC4=O)C5=O)CC3)c2c1C [GT-08094, 5-((4-(5,6-dimethylthieno[2,3-d]pyrimidin-4-yl)piperazin-1-yl)methyl)-2-(2,4-dioxotetrahydropyrimidin-1(2H)-yl)isoindoline-1,3-dione] | B (80%< substrate protein remaining %≤ 100%) | A (0% ≤ substrate protein remaining % ≤ 80%) | B (80%< substrate protein remaining %≤ 100%) | A (0% ≤ substrate protein remaining % ≤ 80%) | 25 to 40 | 25 to 40 | B (80%< substrate protein remaining %≤ 100%) | A (0% ≤ substrate protein remaining % ≤ 80%) | 20 to 40 | 20 to 40 | 30 to 40 | 25 to 30
O=C1CCN(N2C(=O)c3ccc(CN4CCN(c5ncnc6sc(-c7ccccc7)cc56)CC4)cc3C2=O)C(=O)N1 [GT-08097, 2-(2,4-dioxotetrahydropyrimidin-1(2H)-yl)-5-((4-(6-phenylthieno[2,3-d]pyrimidin-4-yl)piperazin-1-yl)methyl)isoindoline-1,3-dione] | B (80%< substrate protein remaining %≤ 100%) | A (0% ≤ substrate protein remaining % ≤ 80%) | B (80%< substrate protein remaining %≤ 100%) | A (0% ≤ substrate protein remaining % ≤ 80%) | 10 to 15 | 18 to 25 | B (80%< substrate protein remaining %≤ 100%) | A (0% ≤ substrate protein remaining % ≤ 80%) | 5 to 10 | 10 to 15 | 15 to 20 | 30 to 40
